Read-outs that look alike come from different tables or passages of the source.
Key:
[1] = molecular target: T1, androgen receptor (CMV-hAR) in CV-1 cells (Homo sapiens, UniProt P10275); assay: AR transactivation assay, antagonist mode (ARAF cells, ALP reporter, presence of 0.1 nM Mibolerone); assay type: cell-based; conditions: for ARAF % ANTAGONIST: decrease in ALP activity in the presence of 0.1 nM Mibolerone
T1 construct: expressed in transfected cells
T1 sequence (P10275 1-920): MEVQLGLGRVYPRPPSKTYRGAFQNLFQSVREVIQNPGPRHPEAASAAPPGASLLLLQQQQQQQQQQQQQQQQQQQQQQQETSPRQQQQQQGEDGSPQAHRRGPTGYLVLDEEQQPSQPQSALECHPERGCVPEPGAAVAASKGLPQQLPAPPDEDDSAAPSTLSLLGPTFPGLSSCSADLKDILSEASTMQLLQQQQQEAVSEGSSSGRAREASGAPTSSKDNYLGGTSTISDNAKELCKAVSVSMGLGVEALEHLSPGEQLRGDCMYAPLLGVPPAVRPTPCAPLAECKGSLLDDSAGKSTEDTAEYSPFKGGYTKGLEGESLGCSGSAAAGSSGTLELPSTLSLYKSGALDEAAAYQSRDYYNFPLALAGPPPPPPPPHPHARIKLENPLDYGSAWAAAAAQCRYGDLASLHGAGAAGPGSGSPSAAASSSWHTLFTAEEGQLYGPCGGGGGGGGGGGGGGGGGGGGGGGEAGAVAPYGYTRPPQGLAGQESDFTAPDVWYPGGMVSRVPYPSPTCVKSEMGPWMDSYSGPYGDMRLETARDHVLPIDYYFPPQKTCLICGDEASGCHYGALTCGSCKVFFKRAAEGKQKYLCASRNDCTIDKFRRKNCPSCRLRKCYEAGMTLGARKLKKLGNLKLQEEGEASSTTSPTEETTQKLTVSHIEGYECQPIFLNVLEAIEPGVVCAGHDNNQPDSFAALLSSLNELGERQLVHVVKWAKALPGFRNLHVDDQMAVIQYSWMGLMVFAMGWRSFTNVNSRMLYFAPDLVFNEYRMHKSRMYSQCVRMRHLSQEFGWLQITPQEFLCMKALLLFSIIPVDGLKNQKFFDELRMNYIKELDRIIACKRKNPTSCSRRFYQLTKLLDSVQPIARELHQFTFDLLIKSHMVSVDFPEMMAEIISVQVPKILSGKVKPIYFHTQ
Experimental: (§1) The agonist and antagonist properties of compounds were determined using a cell-based system expressing stably integrated androgen receptor and an androgen responsive reporter gene. CV-1 cells (kidney fibroblasts) stably expressing CMV-hAR and alkaline phosphatase (ALP) driven by an MMTV promoter containing an androgen response element were cultured in Dulbecco's Modified Eagle Medium (DMEM), low glucose supplemented with 10% fetal bovin serum, 1% L-glutamine, and 0.7% Hygromycine B. The stably integrated cells (ARAF) were trypsinized and resuspended in Opti-MEM 1 supplemented with 2% fetal bovine serum, 1% L-Glutamine, 50 μg/ml Gentamicine and 1% Pen/Strep. The cells were counted in a Birch chamber and diluted to a concentration of 100 000 cells/ml. The cells were then seeded out in 384 plates, 5000 cells/well in 50 μl seeding media and incubated overnight in 37 C, 5% CO2.
(§2) The next day, the seeding medium was removed from the cells and 20 μl induction media (Opti-MEM 1 supplemented with 1% L-Glutamine, 50 μg/ml Gentamicine and 1% Pen/Strep)+/−0.1 nM Mibolerone was added to the wells. 10 μl of test compound diluted in induction media was then added to the wells. The cells were incubated 48 hr in 37 C, 5% CO2.
(§3) After 48 hr 5 μl of cell medium was added to white 384 plates with 100 μl of ALP substrate buffer. The plates were incubated in 37 C for 20 minutes followed by incubation at room temperature for 10 minutes before each well was read in a μBETA machine. Agonist activity was calculated from the alkaline phosphatase activity induced in the absence of Mibolerone and compared to standard activation curve generated by Mibolerone alone. Antagonist activity was calculated from the decrease in ALP activity in the presence of 0.1 nM Mibolerone. EC50 and IC50 values were calculated by using a non-linear four-parameter fit as described above.

[2] = molecular target: T2, Recombinant human androgen receptor (hAR) (Homo sapiens, UniProt P10275); assay: AR competition binding assay (3H-mibolerone tracer)
T2 construct: made in house; host or cells: Sf9 insect cells
T2 sequence (P10275 1-920): T1 sequence (P10275 1-920)
Experimental: Recombinant human androgen receptor (hAR) was extracted from Sf9 insect cells with buffer containing 1 mM EDTA, 20 mM K2HPO4, 8.7% glycerol, 20 mM Na2MoO4 and 12 mM MTG at 5*10^7 cells/ml. The cell debris was removed by centrifugation and the supernatant aliquoted and stored at −70° C.
An aliquot of AR extract was thawed on ice prior to use and diluted to approximately 0.2 nM (1 to 30 dilution) in buffer (100 mM KnHmPO4 pH 7.0, 1 mM EDTA, 8.7% glycerol, 20 mM Na2MoO4 and 1 mM DTT). The test ligands were diluted in DMSO as a dilution series of 10 concentrations in duplicate, with 1:5 dilution between each concentration. Tritiated mibolerone (^3H-Mib) was used as tracer compound and diluted to 1.6 nM in 1 mM EDTA, 20 mM Na2MoO4, 8.7% glycerol and 1 mM DTT. To a 96-well polypropylene-plate 110 μl/well of 1.6 nM ^3H-Mib, 10 μl/well test substance and 110 μl/well diluted AR was added. The plates were covered and incubated at +4° C. over night. The plates were harvested on filters to separate bound ligand from unbound ligand with a Tomtec Harvester. A prewet buffer containing 20 mM Kn(PO4) pH 7.6, 1 mM EDTA, v/v 0.5% polyethyleneimine was used to equilibrate the filter before filtering the samples and washing the filters with 20 mM Kn(PO4) pH 7.6, 1 mM EDTA 8 times. The filters were allowed to dry for 1 hour at +65° C. A scintillating wax was melted upon the filter and the radioactivity retained on the filter was measured in a Wallac Microbeta scintillation counter.
The affinity to AR was evaluated by a non-linear four-parameter logisitic model: b=(bmax−bmin)/(1+(IC50/I)̂S)+bmin, where bmax=total concentration of binding sites, bmin=non-specific binding, I=added concentration of binding inhibitor, IC50=concentration of binding inhibitor at half-maximal binding and S=slope factor. Table: Antagonist and partial antagonist and binding activity of androgen receptor modulator compounds.

[3] = molecular target: T1, androgen receptor (CMV-hAR) in CV-1 cells; assay: AR transactivation assay, agonist mode (ARAF cells, ALP reporter, absence of Mibolerone); assay type: cell-based; conditions: for ARAF % AGONIST: ALP activity in absence of Mibolerone compared to standard activation curve of Mibolerone alone
Experimental: as §1, §2, §3

[4] = CV-1 cells stably expressing hAR and MMTV-ALP, presence of 0.1 nM Mibolerone, 48 hr, read-out: ARAF IC50
[5] = competition with 3H-Mib, hAR extract from Sf9 cells, +4° C. over night, read-out: AR_LT IC50
[6] = CV-1 cells stably expressing hAR and MMTV-ALP, absence of Mibolerone, 48 hr, read-out: ARAF EC50

SMILES | IC50 [1, 4] | ARAF % ANTAGONIST [1] | IC50 [2, 5] | ARAF % AGONIST [3] | EC50 [3, 6] | IC50 [1] | EC50 [3] | IC50 [2]
Cc1cc(NC(C)(C)CO)ccc1[N+](=O)[O-] [Example-5] | 7.2 nM | 61% | 38.1 nM | 29.3% | 81.7 nM |  |  | 
CC(C)[C@@H](CO)Nc1ccc([N+](=O)[O-])c(C(F)(F)F)c1 [Example-30] |  | 88.7% | 113 nM | 7.3% |  | 68.3 nM | 1070 nM | 
Cc1nc(NC(C)(C)CO)ccc1[N+](=O)[O-] [Example-8, 2-Methyl-2-(6-methyl-5-nitro-pyridin-2-ylamino)-propan-1-ol] | 22.3 nM | 82.5% | 241 nM | 10.6% | 374 nM |  |  | 
CCC[C@@H](CO)Nc1ccc([N+](=O)O)cc1 [Example-103, (S)-2-(4-Nitro-phenylamino)-pentan-1-ol] | 136 nM | 92.9% | 98.7 nM |  |  |  |  | 
CCC[C@@H](CO)Nc1ccc([N+](=O)[O-])cc1Br [Example-106, (S)-2-(2-Bromo-4-nitro-phenylamino)-pentan-1-ol] | 241 nM | 88.2% |  |  |  |  |  | 170 nM
CC[C@H](C)[C@@H](CO)Nc1ccc([N+](=O)[O-])c(C)n1 [Example-61] |  | 87.4% | 89.3 nM |  |  | 68.3 nM |  | 
N#Cc1ccc(NC2(CO)CCCC2)cc1C(F)(F)F [Example-19, 4-(1-Hydroxymethyl-cyclopentylamino)-2-trifluoromethyl-benzonitrile] |  | 95.6% | 130 nM |  |  | 22.4 nM |  | 
CCCC(CO)Nc1ccc([N+](=O)[O-])c(C)c1 (centres unmarked) [Example-78] | 25.8 nM | 65.4% | 54.5 nM | 25% | 280 nM |  |  | 
CC(C)(CO)Nc1ccc([N+](=O)[O-])c(C(F)(F)F)c1 [Example-1, 2-Methyl-2-(4-nitro-3-trifluoromethyl-phenylamino)-propan-1-ol] |  | 33.1% | 22.8 nM | 51.7% |  | 2.1 nM | 26.8 nM | 
CCCC(CO)Nc1ccc([N+](=O)[O-])c(C(F)(F)F)c1 (centres unmarked) [Example-42] | 493 nM | 92% |  |  |  |  |  | 486 nM
O=[N+]([O-])c1ccc(N[C@H](CO)CSCc2ccccc2)cc1C(F)(F)F [Example-41] | 490 nM | 71.7% | 65.1 nM |  |  |  |  | 
Cc1cc(NCCNc2ccc([N+](=O)[O-])cn2)ccc1[N+](=O)[O-] [Example-86] | 351 nM | 100% | 443 nM |  |  |  |  | 
CCCC[C@@H](CO)Nc1ccc([N+](=O)[O-])c(C)n1 [Example-60] | 27.4 nM | 79.3% | 68.3 nM | 9.3% | 336 nM |  |  | 
Cc1nc(N[C@H](CO)CSCc2ccccc2)ccc1[N+](=O)[O-] [Example-65] | 78 nM | 89.2% | 6.2 nM | 7% | 1870 nM |  |  | 
